Experimental data taken from article PMC10740156, “Discovery of potential WEE1 inhibitors via hybrid virtual screening” (Frontiers in Pharmacology, 2023).
Where a name gives a salt, the structure may show the parent alone.

Key:
A549 cells [1] = test: Cell apoptosis analysis (Annexin V/PI flow cytometry); format: cell-based, human; details: 2 μM, 72 h; for percentage of apoptotic cells (early apoptosis + late apoptosis): blank control 9.86%
Method: (§1) For apoptosis detection, Cells were performed with Pharmingen FITC Annexin V Detection KitⅠ(BD Bioscience, Oxford, UK). Briefly, Cells were harvested and washed once with 1×binding buffer and then incubated with Annexin V and Propidium Iodide (PI) for 15 min in the dark at 37°C.
(§2) All samples were acquired by flow cytometry (FACS CantoⅡ, BD Bioscience) and analysed with Flowjo software version 10.4.

PC9 cells [2] = test: as above; format: cell-based, human; details: 500 nM, 72 h; for percentage of apoptotic cells (early apoptosis + late apoptosis): blank control 13.24%
Method: as §1, §2

A549 cells [3] = test: Cell cycle analysis (PI staining flow cytometry); format: cell-based, human; details: 2 μM, 24 h
Method: (§3) For cell cycle detection, Cells were harvested and gently washed with PBS, and fixed with 70% cold ethanol −20°C overnight. After centrifugation, Cells were retained for precipitation and incubated with PI/RNase Staining Buffer (BD Bioscience, Oxford, United Kingdom) for 15 min in the dark at 37°C.
as §2

WEE1 kinase = WEE1 kinase (Homo sapiens, UniProt P30291); test: Inhibitory activity assay (ADP-Glo kinase assay); format: biochemical; details: for IC50: WEE1 kinase; for Inhibition Rate / inhibition at 25 µM: compound 25 μM, relative inhibition rate, Staurosporine (10 µM) as positive control
Sequence of WEE1 kinase (P30291 whole entry): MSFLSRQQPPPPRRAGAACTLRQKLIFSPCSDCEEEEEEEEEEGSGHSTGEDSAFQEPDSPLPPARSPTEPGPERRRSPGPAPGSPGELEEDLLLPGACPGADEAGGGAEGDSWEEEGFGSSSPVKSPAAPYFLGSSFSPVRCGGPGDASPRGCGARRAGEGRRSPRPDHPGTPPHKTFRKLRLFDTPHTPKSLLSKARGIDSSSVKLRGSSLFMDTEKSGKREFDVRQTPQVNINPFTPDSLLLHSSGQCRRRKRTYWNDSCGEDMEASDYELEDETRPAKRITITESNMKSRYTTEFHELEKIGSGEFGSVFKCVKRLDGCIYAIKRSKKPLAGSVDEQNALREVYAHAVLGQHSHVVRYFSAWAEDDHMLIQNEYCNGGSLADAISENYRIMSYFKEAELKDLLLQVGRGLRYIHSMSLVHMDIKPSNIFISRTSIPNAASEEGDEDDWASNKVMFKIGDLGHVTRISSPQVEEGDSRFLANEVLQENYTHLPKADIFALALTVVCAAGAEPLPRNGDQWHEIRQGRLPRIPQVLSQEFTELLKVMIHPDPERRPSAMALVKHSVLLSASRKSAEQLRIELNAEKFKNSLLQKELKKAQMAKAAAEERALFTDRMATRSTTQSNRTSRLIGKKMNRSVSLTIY
Method: The tested compounds were dissolved in DMSO to make a 10 mM stock solution, which was further diluted to a drug solution of 25 µM. […] Transfer 20 nL compound to 384 assay plate by Echo 655. […] 8 μL of kinase detection reagent was added to the well, and incubated for 40 min at 25°C. Read the RLU (relative light-emitting unit) signal using the BMG multifunction microplate reader, and the signal intensity is used to characterize the degree of kinase activity. […] Staurosporine is a prototypical ATP-competitive kinase inhibitor in that it binds to many kinases with high affinity. The inhibition rates were calculated using the equations (X: log of inhibitor concentration; Y: % Inhibition). Assays were performed on three independent experiments. Y=Bottom+Top – Bottom/(1+10^ (LogIC50 – X×hillslope))

A549 cells [4] = test: Anti-proliferation activity assay (CCK-8); format: cell-based; details: Homo sapiens, 72 h
Method: (§4) Anti-proliferation activity assay was detected by Cell Counting Kit-8 detection kit (CCK-8, #K1018) provided by Apexbio (United States). In brief, cells were seeded in 96-wells plates at a density of 3 × 10^3/well for 24 h. Then, cells were treated with indicated concentrations of compounds for 72 h. Supernatant was totally removed, and 100 μL of CCK-8 solution was added to each well and cultured for another 1 h at 37°C. The absorbance of plates was measured by SpectraMax M2 (Molecular Devices, San Jose, CA, United States) at 450 nm. […] Assays were performed on three independent experiments.

Bel-7402 cells = test: Anti-proliferation activity assay (CCK-8); format: cell-based; details: Homo sapiens, 72 h
Method: as §4

HuH-7 cells = test: Anti-proliferation activity assay (CCK-8); format: cell-based, human
Method: as §4

PC9 cells [5] = test: Cell cycle analysis (PI staining flow cytometry); format: cell-based, human; details: 500 nM, 24 h, compared to blank group
Method: as §3, §2

PC9 cells [6] = test: Anti-proliferation activity assay (CCK-8); format: cell-based; details: Homo sapiens, PC-9, 72 h
Method: as §4

For `C=CCn1c(=O)c2cnc(Nc3ccc(N4CCN(C)CC4)cc3)nc2n1-c1cccc(C(C)(C)O)n1` [AZD1775, Adavosertib, reference compound], the “Q2% (late apoptosis rate)” value (A549 cells [1]) was 5.52%, the “Q3% (early apoptosis rate)” value (A549 cells [1]) was 11.1% and the “Q4 (flow cytometry quadrant)” value (A549 cells [1]) was 83.3. The “percentage of apoptotic cells (early apoptosis + late apoptosis)” value (from here on “percentage of apoptotic cells”) (A549 cells [1]) was 16.62%, the “Q1 (flow cytometry quadrant)” value (PC9 cells [2]) was 0.015 and the “Q2% (late apoptosis rate)” value (PC9 cells [2]) was 5.20%. The “Q3% (early apoptosis rate)” value (PC9 cells [2]) was 22.0%, the “Q4 (flow cytometry quadrant)” value (PC9 cells [2]) was 72.8 and the “percentage of apoptotic cells” value (PC9 cells [2]) was 27.20%. For the same molecule, the cell cycle distribution (A549 cells [3]) was “no significant change”.
With `CCN1CCN(Cc2ccc(-c3cc4c(N[C@H](C)c5ccccc5)ncnc4[nH]3)cc2)CC1` [Compound 2, AEE788] the IC50 (WEE1 kinase) was 103 nM and the “Inhibition Rate” value (WEE1 kinase) was 134.70 ± 1.61%.
`CNS(=O)(=O)c1ccccc1Nc1nc(Nc2ccc(N3CCN(C)CC3)cc2OC)ncc1Cl` [Compound 3, ALK inhibitor 2] was tested, and the IC50 (WEE1 kinase) was 988 nM and the “Inhibition Rate” value (WEE1 kinase) was 127.17 ± 1.08%.
For `CNC(=O)c1ccccc1Nc1nc(Nc2ccc(N3CCN(CCCN)CC3)cc2)ncc1Cl` [Compound 4, GSK3182571], the IC50 (WEE1 kinase) was 1.07 nM, the “Inhibition Rate” value (WEE1 kinase) was 126.59 ± 1.66% and the IC50 (A549 cells [4]) was 5.17 µM. It also gave an IC50 (Bel-7402 cells) of 147 nM, an IC50 (HuH-7 cells; 72 h) of 875 nM and an IC50 (HuH-7 cells; Homo sapiens, Huh-7, 72 h) of 880 nM. The “Q2% (late apoptosis rate)” value (A549 cells [1]) was 8.55%, the “Q3% (early apoptosis rate)” value (A549 cells [1]) was 9.18% and the “Q4 (flow cytometry quadrant)” value (A549 cells [1]) was 82.2. For the same molecule, the “percentage of apoptotic cells” value (A549 cells [1]) was 17.73%, the “Q1 (flow cytometry quadrant)” value (PC9 cells [2]) was 0.014 and the “Q2% (late apoptosis rate)” value (PC9 cells [2]) was 4.55%. For the same molecule, the “Q3% (early apoptosis rate)” value (PC9 cells [2]) was 80.2%, the “Q4 (flow cytometry quadrant)” value (PC9 cells [2]) was 15.2 and the “percentage of apoptotic cells” value (PC9 cells [2]) was 84.75%. For the same molecule, the cell cycle distribution (A549 cells [3]) was “no significant change”, the “proportion of cells in the G1 phase” value (PC9 cells [5]) was “significantly increased” and the “proportion of cells in the G2 phase” value (PC9 cells [5]) was “did not change significantly”.
For `CNC(=O)c1nn(C)c2c1C(C)(C)Cc1cnc(Nc3ccc(N4CCN(C)CC4)cc3)nc1-2` [Compound 5, Milciclib], the IC50 (WEE1 kinase) was 3.77 nM, the “Inhibition Rate” value (WEE1 kinase) was 137.84 ± 1.08% and the IC50 (PC9 cells [6]) was 8.88 µM. It also gave an IC50 (HuH-7 cells; Homo sapiens, Huh-7, 72 h) of 80000 nM.
For `CN1CCCN(C(=O)c2cccc(-c3ccc(/C=C4/C(=O)Nc5ccc(Cl)cc54)o3)c2)CC1` [Compound 6, CX-6258 hydrochloride], the inhibition at 25 µM (WEE1 kinase) was 24.8 ± 2.33%.
In the case of `CCN1CCN(C(=O)Cc2ccc(Nc3ncc(F)c(Nc4ccc(C(=O)Nc5ccccc5Cl)cc4)n3)cc2)CC1` [Compound 8, TCS7010], the IC50 (WEE1 kinase) is reported as 797 nM, the “Inhibition Rate” value (WEE1 kinase) is reported as 95.45 ± 2.24% and the inhibition at 25 µM (WEE1 kinase) is reported as about 100%.
With `C[C@@H](Oc1ccc2[nH]nc(/C=C/c3cnn(CCO)c3)c2c1)c1c(Cl)cncc1Cl` [Compound 9, LY2874455] the inhibition at 25 µM (WEE1 kinase) was 58.2 ± 4.03%.
Molecule `COc1cc(-c2cc(-c3ccc(N4CCNCC4)cc3)cnc2C)cc(OC)c1OC` [Compound 10, LDN-214117] has an inhibition at 25 µM (WEE1 kinase) of 32.77 ± 0.22%.
In the case of Denfivontinib [Compound 1], the “Inhibition Rate” value (WEE1 kinase) is reported as 64.18 ± 1.16%.
